# Measurements taken from patent EP0623605A2, “Substituted piperazines as antiretroviral medicaments” (BAYER AG, priority 1993, dated 1994).
# pIC50: −log10 of the molar value.
# Molecular target: T1, HIV-Protease (Human immunodeficiency virus type 1 group M subtype B, UniProt P04585)
# T1 construct: Gereinigte HIV-Protease wurde mit synthetischem Peptid
# Experiment: HIV-specific protease enzyme test (purified HIV protease incubated with synthetic Gag cleavage-site peptide, cleavage products analysed by RP-HPLC)
# Type: biochemical
# Conditions: for inhibition at 240 µg/mL: read-out: % Inhibition bei 240 µg/ml; for pIC50: substance concentration causing 50% inhibition of protease activity, read-out: IC₅₀
# Excerpt: Darüber hinaus wurde überraschend gefunden, daß die Verbindungen der allgemeinen Formel (I) eine außerordentlich starke Wirkung gegen Retroviren besitzen. Dies wird mit einem HIV-spezifischen Protease-Enzymtest belegt.
# Die Ergebnisse der unten aufgeführten Beispiele wurden nach dem in den folgenden Literaturangaben [vgl. Hansen, J., Billich, S., Schulze, T., Sukrow, S. and Mölling, K. (1988), EMBO Journal, Vol, 7, No. 6, pp. 1785 - 1791] beschriebenen HIV-Testsystem ermittelt: Gereinigte HIV-Protease wurde mit synthetischem Peptid, das eine Schnittstelle im Gag-Precursor-Protein imitiert und eine in vivo-Spaltstelle der HIV-Protease darstellt, inkubiert Die entstandenen Spaltprodukte des synthetischen Peptids wurden über Reverse Phase High Performance Liquid Chromatography (RP-HPLC) analysiert. Die angegebenen IC₅₀-Werte beziehen sich auf die Substanzkonzentration, die unter den oben aufgeführten Testbedingungen eine 50%ige Hemmung der Protease-Aktivität bewirkt. Tabelle 1
Compound,inhibition at 240 µg/mL,pIC50
"CC(CN1CCN(CCCC(c2ccc(F)cc2)c2ccc(F)cc2)CC1)Oc1ccc(F)cc1F (racemic) [Beispiel 10, 1-[4,4-Bis-(4-fluorphenyl)butyl]-4-[(R/S)-2-(2,4-difluorphenoxy)propyl]piperazin]",77%,5.32
Cc1cccc(OC(C)CN2CCN(CCCC(c3ccc(F)cc3)c3ccc(F)cc3)CC2)c1C (racemic) [Beispiel 37],61%,–
CC(CN1CCN(CCCC(c2ccc(F)cc2)c2ccc(F)cc2)CC1)Oc1ccc(C(F)(F)F)cc1 (racemic) [Beispiel 40],84%,–
"CN(C)c1ccccc1OCCN1CCN(CCCC(c2ccc(F)cc2)c2ccc(F)cc2)CC1 [Beispiel 3, 1-[4,4-Bis-(4-fluorphenyl)butyl]-4-[2-(2-N,N-dimethylaminophenoxy)ethyl]piperazin]",76%,–
"C[C@H]1CN(CCOc2ccc(F)cc2F)CCN1CCCC(c1ccc(F)cc1)c1ccc(F)cc1 [Beispiel 13, (S)-1-[4,4-Bis-(4-fluorphenyl)butyl]-2-methyl-4-[2-(2,4-difluorphenoxy)ethyl]piperazin]",91%,6.32
"C[C@H]1CN(CCCC(c2ccc(F)cc2)c2ccc(F)cc2)CCN1CCOc1ccc(F)cc1F [Beispiel 14, (S)-4-[4,4-Bis-(4-fluorphenyl)butyl]-2-methyl-1-[2-(2,4-difluorphenoxy)ethyl]piperazin]",99%,5.96
Fc1ccc(C(CCCN2CCN(CCOc3ccc(F)cc3F)CC2)c2ccc(F)cc2)cc1 [Beispiel 15],92%,6.40
Cc1cccc(OCCN2CCN(CCCC(c3ccc(F)cc3)c3ccc(F)cc3)CC2)c1C [Beispiel 16],59%,–
Cc1cc(Cl)ccc1OCCN1CCN(CCCC(c2ccc(F)cc2)c2ccc(F)cc2)CC1 [Beispiel 17],86%,6.30
COc1cc(C)ccc1OCCN1CCN(CCCC(c2ccc(F)cc2)c2ccc(F)cc2)CC1 [Beispiel 22],81%,–
Fc1ccc(C(CCCN2CCN(CCOc3cccc4c3CCCC4)CC2)c2ccc(F)cc2)cc1 [Beispiel 26],97%,6.00
COc1cccc2c1OC(CN1CCN(CCCC(c3ccc(F)cc3)c3ccc(F)cc3)CC1)CC2 (centres unmarked) [Beispiel 27],78%,–
Cc1ccc(N(C)C)cc1OCCN1CCN(CCCC(c2ccc(F)cc2)c2ccc(F)cc2)CC1 [Beispiel 30],81%,–
Cc1ccc(N)cc1OCCN1CCN(CCCC(c2ccc(F)cc2)c2ccc(F)cc2)CC1 [Beispiel 32],67%,–
COC(=O)c1ccc(OCCN2CCN(CCCC(c3ccc(F)cc3)c3ccc(F)cc3)CC2)c(N(C)C(C)=O)c1 [Beispiel 33],56%,–
CCN(C)c1cc(CO)ccc1OCCN1CCN(CCCC(c2ccc(F)cc2)c2ccc(F)cc2)CC1 [Beispiel 34],99%,6.77
Cc1cc(Cl)ccc1OC(C)CN1CCN(CCCC(c2ccc(F)cc2)c2ccc(F)cc2)CC1 (centres unmarked) [Beispiel 39],77%,6.00
CC(CN1CCN(CCCC(c2ccc(F)cc2)c2ccc(F)cc2)CC1)Oc1cccc2c1CCCC2 (centres unmarked) [Beispiel 41],95%,5.68
COc1cccc2c1OC(CN1CCN(CCCC(c3ccc(F)cc3)c3ccc(F)cc3)C[C@@H]1C)CC2 (some centres unmarked) [Beispiel 44],99%,4.59
